Columns and labels:
[1] = system: visual chromophore regeneration in C57BL6J mouse eyes; assay: visual chromophore recovery assay (ocular 11-cis-retinal by HPLC after bleach); assay type: in vivo; conditions: for visual chromophore regeneration: 10 μg/mouse oral gavage 24 h before light exposure (95% bleach), 6 h dark adaptation; for effect on 11-cis-retinal recovery / visual cycle function: 500 μg (0.5 mg/mouse) oral gavage 24 h before light exposure
Description: FIG. 4 illustrates inhibition of visual chromophore regeneration in C57BL6J mouse eyes by MB compounds. The MB drugs were administrated to mice by oral gavage 24 h prior to light exposure for 10 min. Then all mice recovered under darkness for 6 h.
(§1) Abca4^−/−Rdh8^−/− mice on a C57BL/6J background were generated as previously described. Male and female WT mice with C57BL/6J backgrounds were obtained from The Jackson Laboratory. Abca4^−/−Rdh8^−/− mice used in this study were homozygous for the Leu450 allele of Rpe65 as determined by a genotyping protocol published previously and free of Crb1/rd8 and rd/rd mutations Animals were housed either in the animal facility at the Case Western Reserve University School of Medicine, where they received a standard chow diet (LabDiet 5053) and were maintained under a 12-h light (˜300 lux) and 12-h dark cycle or at the Cole Eye Institute animal facility where they were. Mice were dark adapted overnight prior to all experiments. A cohort of Rdh8^−/−Abca4^−/− or C57BL/6J mice was used when they reached the age of 1 to 2 months, and both sexes were used evenly. All tested primary amines were suspended in 100 μl soybean oil with less than 10% (v/v) DMSO and were administered by oral gavage with a 22-gauge feeding needle. Experimental manipulations in the dark were done under dim red light transmitted through a Kodak No. 1 Safelight Filter (transmittance >560 nm).
After bright light exposure resulting in photoactivation of 95% of rhodopsin, mice were kept in the dark for 6 h. Then, the animals were euthanized and their eyes were collected and homogenized in 10 mM sodium phosphate buffer, pH 7.4, containing 50% methanol (v/v) and 40 mM hydroxylamine. The resulting mixture was extracted with 4 ml of hexanes.
Next, we tested the effects of the MB compound series on retinoid cycle function in the living mouse. […] After the light treatment, mice were allowed to dark adapt for 6 h before their ocular retinoid content was determined by HPLC. […] To examine the possibility that the lack of MB-008 efficacy at 24 h was due to insufficient concentrations resulting from a shorter elimination half-life or poorer bioavailability, we repeated the experiment with the mice subjected to light exposure 4 h after MB-008 administration. A 100 μg dose of MB-008 suppressed visual chromophore regeneration by ˜80%, supporting the idea that the retinal concentration of MB-008 could be sub-effective at the longer post-treatment light challenge.

Abca4−/−Rdh8−/− mice = assay: protection against light-induced retinal degeneration (OCT, ONL thickness); assay type: in vivo, mouse
Description: FIGS. 7(A-B) illustrate protective effects of MB compounds against light-induced retinal degeneration in Abca4^−/−Rdh8^−/− mice. Drugs were administrated at the indicated doses to 4-6 week-old Abca4^−/−Rdh8^−/− mice (weight ˜20 g) by oral gavage. After a 24 h dark adaptation, mice were exposed to 10,000 lux light for 30 min and then returned to a dark environment for 3 days. (A) Representative OCT images of mice treated with MB compounds. A dramatic decrease in the ONL indicates advanced retinal degeneration. The black scale beside the DMSO image represents 50 μm. (B) Retinal protective effects exerted by MB compounds as quantified by average ONL thickness. Only non-scattering ONL layers were measured. For images in which the ONL layer boundary was obscured due to light scattering, the ONL length was recorded as 0 μm. Error bars represent standard deviations; n=3-5 for each group.
as §1
After dark adaptation for 24 h, Abca4^−/−Rdh8^−/− mice with pupils dilated by 1% tropicamide were exposed to fluorescent light (10,000 lux; 150 W spiral lamp; Commercial Electric) for 30 min in a white paper bucket (Papersmith) and then kept in the dark for an additional 3 days. Development of retinal degeneration was then determined by ultra-high-resolution spectral domain OCT (SD-OCT; Bioptigen) and ERG as previously described.
To examine the ability of […] cause retinal damage in the absence of treatment with protective agents. Three days later retinas were imaged in vivo by optical coherence tomography, with preservation of outer nuclear layer thickness and light scattering properties serving as markers for retinal health. MB-001, which is capable of preventing light-induced retinal degeneration through both direct RPE65 inhibition as well as retinal sequestration served as a positive control for these experiments.

RPE65 = RPE65 (Bos taurus, UniProt Q28175); assay: in vitro retinoid isomerase activity assay with bovine RPE microsomes; conditions: for times more potent compared to emixustat (racemic): RPE65 inhibition, bovine RPE microsomes; for inhibition against retinoid isomerization: up to concentrations of 50 μM
Chain of RPE65 (Q28175 whole entry): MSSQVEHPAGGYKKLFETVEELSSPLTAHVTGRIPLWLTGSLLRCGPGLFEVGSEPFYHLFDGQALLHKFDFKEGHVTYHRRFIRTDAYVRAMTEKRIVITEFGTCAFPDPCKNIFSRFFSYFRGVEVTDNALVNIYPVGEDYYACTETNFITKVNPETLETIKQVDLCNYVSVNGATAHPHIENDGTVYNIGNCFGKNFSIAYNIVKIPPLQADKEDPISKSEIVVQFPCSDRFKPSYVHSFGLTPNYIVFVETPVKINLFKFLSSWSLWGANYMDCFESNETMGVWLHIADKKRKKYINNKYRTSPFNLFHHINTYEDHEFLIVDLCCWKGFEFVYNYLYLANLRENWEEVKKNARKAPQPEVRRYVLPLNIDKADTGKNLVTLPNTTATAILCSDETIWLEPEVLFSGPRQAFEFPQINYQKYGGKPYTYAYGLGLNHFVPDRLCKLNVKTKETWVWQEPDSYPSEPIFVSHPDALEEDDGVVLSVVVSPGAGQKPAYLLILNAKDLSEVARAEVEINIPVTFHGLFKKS
Description: Primary amines were pre-incubated with bovine RPE microsomes at room temperature for 5 min, then all-trans-retinol was added and the mixtures were incubated at 37° C. All incubation mixtures were quenched by the addition of methanol after 1 h of incubation. Inhibition of RPE65 enzymatic activity was measured as a decline in 11-cis-retinol production.
Synthesized primary amine (1 μl in DMF, with the final concentration ranging between 50 nM and 50 μM) was added to 10 mM Bis-Tris propane/HCl buffer, pH 7.4, containing 150 μg RPE microsomes, 1% BSA, 1 mM disodium pyrophosphate, and 20 μM aporetinaldehyde-binding protein 1 (CRALBP). The resulting mixture was pre-incubated at room temperature for 5 min. Then, all-trans-retinol (1 μl in DMF, at a final concentration of 20 μM) was added. The resulting mixture was incubated at 37° C. for 1 h. The reaction was quenched by adding 300 μl methanol, and products were extracted with 300 μl hexanes. Production of 11-cis-retinol was quantified by normal-phase HPLC with 10% (v/v) EtOAc in hexanes as the eluent at a flow rate of 1.4 ml/min. Retinoids were detected by monitoring their absorbance at 325 nm and quantified based on a standard curve representing the relationship between the amount of synthetic 11-cis-retinol standard and the area under the corresponding chromatographic peak.
To test these structural predictions, we examined the inhibitory activity of the compounds against RPE65 activity in an in vitro retinoid isomerase assay using bovine RPE microsomes as the enzyme source.

C57BL/6J mice = assay: in vivo dark-adapted ERG recordings after bleach; set-up: species or system mouse; conditions: gavage 1 day before bleach, doses indicated effective by retinoid analysis
Description: FIG. 5 illustrates ERG responses of mice treated with visual cycle modulators. Oral gavage was used to administer vehicle or MB compounds to mice 24 h prior to 10 min light exposure followed by 6 h of dark adaptation. Dark-adapted ERGs were obtained to strobe flash stimuli.
C57BL/6J mice aged 1.5-4 months were anesthetized with ketamine (80 mg/kg) and xylazine (16 mg/kg) after overnight dark adaptation. Mydriatic eye drops were used to dilate the pupil (1% tropicamide; 2.5% phenylephrine). ERGs were obtained using an active electrode that contacted the corneal surface; needle electrodes placed in the cheek and tail provided reference and ground leads, respectively. Strobe stimuli were presented to the dark-adapted eye in an LKC (Gaithersburg, MD) ganzfeld. Responses were amplified, averaged and stored using an LKC UTAS E-3000 signal averaging system.
Baseline dark-adapted ERGs were recorded from each mouse. After a minimum 1 day interval, MB compounds or vehicle were administered by gavage at 9 a.m. The next morning, mydriatic eye drops were used to dilate the pupils and mice were then exposed to a 10-minute 10,000 lux bleach. Mice were dark-adapted for 6 hours, after which ERGs were recorded.
We next examined the impact of these compounds on retinal function, measured using the electroretinogram (ERG). FIG. 5 presents a family of dark-adapted ERGs measured 6 hours after mice underwent a 95% bleach presented 1 day following gavage administration of vehicle or MB compound molecules at doses indicated to be effective by retinoid analysis. […] In comparison, mice administered with MB compound molecules had had reduced amplitude ERGs indicative of incomplete bleaching recovery. […] In response to higher luminance stimuli, reproducible responses were observed. That these reflect dark-adapted cone-mediated responses is supported by their similarity to responses obtained from transducin KO mice which lack rod-mediated activity, while retaining normal cone-mediated responses, and have a very similar ERG phenotype.

[2] = identification of atRAL Schiff base conjugates with MB compounds in mouse eyes; assay type: in vivo; conditions: Abca4−/−Rdh8−/− mice, 50 mg/kg oral gavage, bright light exposure 10 min; mass spectrometry versus standards
Description: FIGS. 6(A-B) illustrate identification of retinal Schiff base conjugates in Abca4^−/− Rdh8^−/− mice treated with MB-005 and MB-006. Following drug administration, mice were exposed to intense light for 10 min. After a 30 min recovery under darkness, animals were sacrificed and retinoids were extracted from the eyes. (A, B) Shown in the top panels are selective ion chromatograms for MB-005-retinal conjugates (A, at m/z=572.6) and MB-006-retinal conjugates (B, at m/z=588.6). Panels on the bottom show the mass spectra of the peaks coinciding with the retention times of their authentic standards. The insets display the MS/MS fragmentation patterns of the two imines, which were identical to the corresponding standards.
MB-005 or MB-006 (50 mg/kg) were administrated by oral gavage to Abca4^−/−Rdh8^−/− mice 24 h prior to light exposure. After exposure to fluorescent light for 10 min, animals were euthanized and their eyes were collected and homogenized in acetonitrile. After centrifugation, the supernatant was concentrated to 400 μl under vacuum. […]
With the effects of these compounds on visual cycle function established we next sought to examine their ability to form retinal-Schiff base conjugates in vivo. […] Retinoids were extracted and analyzed by mass spectrometry. […]

[3] = 1 mg per mouse oral gavage 24 h before light

CCCC(CCO)COc1cccc(C(O)CCN)c1 (mixture of isomers) [MB-008, 3-((3-(3-Amino-1-hydroxypropyl)phenoxy)methyl)hexan-1-ol]
visual chromophore regeneration [1]: recovered visual chromophore to a level comparable to vehicle-treated mice | suppression of visual chromophore regeneration ([1]; 100 μg dose, light exposure 4 h after administration): ~80% | suppression in visual cycle function ([1]; ten-fold higher dose than 10 μg, oral gavage 24 h before light exposure, 6 h dark): 30% | protection against light-induced retinal degeneration (Abca4−/−Rdh8−/− mice; doses as high as 0.25 mg, administered 24 h prior to the light challenge): poorly protective | effect of shortening the duration between administration and light challenge on protection (Abca4−/−Rdh8−/− mice; from 24 to 6 h): substantially improved the protective effects | protection against light-induced retinal degeneration (Abca4−/−Rdh8−/− mice; shorter time period (6 h), dose ten-times higher than that used for MB-004): full protection | IC50 (RPE65): 189 ± 31 nM | times more potent compared to emixustat (racemic) (RPE65): ~1.2 times

CC1=C(COc2cccc([C@H](O)CCN)c2)C(C)(C)CCC1 [MB-001, reference compound]
dark-adapted ERG 6 hours after 95% bleach (C57BL/6J mice): responses to low luminance stimuli that were not different from background noise levels | protection against light-induced retinal degeneration (Abca4−/−Rdh8−/− mice; 50 μg oral gavage 24 h before light, positive control): fully protective

CCCC(CCC)COc1cccc([C@H](O)CCN)c1 [MB-004]
visual chromophore regeneration [1]: dramatically suppressed visual chromophore regeneration | dark-adapted ERG 6 hours after 95% bleach (C57BL/6J mice): responses to low luminance stimuli that were not different from background noise levels | protective effect relative to MB-001 (Abca4−/−Rdh8−/− mice; 25 μg oral gavage 24 h before 10,000 lux light, OCT 3 days later): approximately 80% | IC50 (RPE65): 106 ± 16 nM | times more potent compared to emixustat (racemic) (RPE65): approximately 2.2 times

CC(C)c1cc(OCC2CCCCC2)cc(C(O)CCN)c1 (stereo not drawn) [MB-006, 3-Amino-1-(3-(cyclohexylmethoxy)-5-isopropylphenyl)propan-1-ol]
effect on 11-cis-retinal recovery / visual cycle function ([1]; 6 h dark): strongly suppressed visual cycle function | visual chromophore production, % of the vehicle control ([1]; 500 μg oral gavage 24 h before light exposure): ~30% | visual chromophore production, % of the vehicle control ([1]; 1000 μg oral gavage 24 h before light exposure): ~20% | dark-adapted ERG 6 hours after 95% bleach (C57BL/6J mice): less incomplete recovery | retinal Schiff base adducts in eye extracts [2]: contained compounds matching the expected molecular weight of the respective Schiff base adducts | protection against light-induced retinal degeneration (Abca4−/−Rdh8−/− mice; 0.5 mg per mouse oral gavage 24 h before light): not | protection against light-induced retinal degeneration (Abca4−/−Rdh8−/− mice; [3]): protective | inhibition against retinoid isomerization (RPE65): minimal or no inhibition

CC1=C(COc2cc(C(C)C)cc(C(O)CCN)c2)C(C)(C)CCC1 (stereo not drawn) [MB-007, 3-Amino-1-(3-isopropyl-5-((2,6,6-trimethylcyclohex-1-en-1-yl)methoxy)phenyl)propan-1-ol]
effect on 11-cis-retinal recovery / visual cycle function ([1]; 6 h dark): minimal effects | inhibition of 11-cis-retinal recovery (suppression of visual chromophore regeneration) ([1]; two-fold higher dose than 500 μg (1 mg per mouse), oral gavage 24 h before light exposure): ~50% | protection against light-induced retinal degeneration (Abca4−/−Rdh8−/− mice; [3]): no more protective than vehicle control | inhibition against retinoid isomerization (RPE65): minimal or no inhibition
